According to patent US7129073B2, “Regulation of neuronal function through metabotropic glutamate receptor signaling pathways” (The Rockefeller University, priority 2001, dated 2006):
Entries after “also recorded” stand apart in the source; their conditions may differ.

How the values were obtained:
[1] = system: Ser137 of DARPP-32 (CK1 site); assay: DARPP-32 phospho-Ser137 immunoblot in neostriatal slices; type: cell-based, mouse
Protocol: (§1) Neostriatal slices were prepared from male C57/BL6 mice (6–8 weeks old) in accordance with methods known in the art (Nishi, A. et al. 1997, J. Neurosci. 17:8147–8155). Slices were treated with a drug. After drug treatment, slices were immediately frozen in liquid nitrogen, and stored at −80° C. until assayed.
Frozen slices were sonicated in hot homogenization buffer containing 1% SDS and 50 mM NaF, and samples were boiled for 10 minutes. SDS-PAGE sample buffer was then added and samples were boiled for 5 minutes. Samples (approximately 120 μg of total protein) were separated by SDS-PAGE (10% polyacrylamide) and then transferred to nitrocellulose. In most studies, immunoblots were first probed with anti-phospho-Ser137 DARPP-32 antibody. The blots were then stripped and probed with anti-phospho-Thr75 DARPP-32 antibody. Blots were stripped again and probed with anti-total DARPP-32 antibody. […] Chemiluminescence was detected by autoradiography and bands were quantified by analysis of scanned images using NIH IMAGE 1.52 software. Data were statistically analyzed by Student's t test in Microsoft EXCEL™ software as indicated.
Neostriatal slices were prepared from male C57/BL6 mice (6–8 weeks old) as disclosed (22). Slices were treated with drugs as specified in the text and figure legends. After drug treatment, slices were immediately frozen in liquid nitrogen, and stored at −80° C. until assayed.
Frozen slices were sonicated in hot homogenization buffer containing 1% SDS and 50 mM NaF, and samples were boiled for 10 min. SDS-PAGE sample buffer was then added and samples were boiled for 5 min. Samples (approximately 120 μg protein) were separated by SDS-PAGE (10% polyacrylamide) and transferred to nitrocellulose. Immunoblots were first probed with antiphospho-Ser-137 DARPP-32 antibody. The blots were stripped and probed with anti-phosphoThr-75 DARPP-32 antibody. Blots were stripped again and probed with anti-total DARPP-32 antibody. Antibody binding was detected by enhanced chemiluminescence (ECL) using X-ray film, and images were analyzed by laser scanning densitometry using NIH Image 1.52 software. Data were statistically analyzed by Student's t-test using Microsoft EXCEL™ software as indicated.

Cdk5 = Cdk5 kinase activity immunoprecipitated from neostriatal slices, histone H-1 as substrate; type: cell-based, mouse
Protocol: as §1
For Cdk5 immunoprecipitation, striatal tissue slices (approximately 150 μg total protein) were lysed using a Dounce homogenizer and 1 ml of lysis buffer (150 mM NaCl, 20 mM Tris-HCl (pH 7.4), 1 mM EDTA, 0.5% NP-40, 5 mM NaF, 5 mM Na3PO4 and protease inhibitors). Lysates were centrifuged at 10,000 g for 10 minutes at 4° C. Supernatants were pre-cleared by adding rabbit IgG-conjugated agarose for 40 minutes at 4° C. Ten μl of Cdk5 antibody conjugated to agarose were added and samples were incubated for 1 hour at 4° C. with mixing. Agarose pellets were collected and washed three times with 1 ml of lysis buffer and two times with kinase assay buffer (50 mM Hepes (pH 7.5), 10 mM MgCl2, 1 mM DTT). Cdk5 kinase assays were performed in a 30-μl reaction mixtures with 2 μg Histone H-1, 500 μM ATP and 5 μCi of γ-^32P-ATP. Samples were incubated at 30° C. for 10 minutes, reactions were stopped by addition of SDS-sample buffer, and samples were boiled for 5 minutes. Samples were separated by SDS-PAGE and analyzed as disclosed above for CKI assays. Data were analyzed by Student's t-test in Microsoft Excel software as indicated, with significance defined as p<0.05.
CK1 assays were performed in a 30 μl assay volume with 2 μg of purified DARPP-32, 500 μM ATP and 5 μCi γ-^32P-ATP. Reactions were started by addition of the ATP. Samples were incubated at 30° C. for 10 min and reactions were stopped by addition of SDS-sample buffer and boiled for 5 min. Samples were separated by SDS-PAGE (12% polyacrylamide). SDS-PAGE gels were dried and exposed to Kodak film for autoradiography. Results were quantified using a Molecular Dynamics PHOSPHORIMAGER™. Immunoprecipitation and assay of Cdk5 were performed as disclosed (20).

[2] = system: voltage-dependent Ca2+ channels; assay: whole-cell recordings of voltage-dependent Ca2+ channels in dissociated neostriatal neurons; type: cell-based, mouse; details: for effect on basal Ca2+ currents / effect on the enhancement of Ca2+ currents by DHPG: CK1–7 100 μM, butyrolactone 25 μM (FIG. 6)
Protocol: Neostriatal neurons from 3- to 4-week-old mice were acutely dissociated by using procedures similar to those disclosed in Eberwine et al. (1995, Prog. Brain Res. 105:117–126). Whole-cell current recordings used standard voltage-clamp techniques. The internal solution consisted of 180 mM N-methyl-D-glucamine, 40 mM Hepes, 4 mM MgCl2, 0.5 mM 1,2-bis(2-aminophenoxy)ethane-N,N,N′,N′-tetraacetate, 12 mM phosphocreatine, 2 mM Na2ATP, 0.2 mM Na3GTP, 0.1 mM leupeptin (pH 7.2–7.3), 265–270 mosm/liter. The external solution consisted of 135 mM NaCl, 20 mM CsCl, 1 mM MgCl2, 10 mM Hepes, 0.001 mM tetrodotoxin, 5 mM BaCl2, 10 mM glucose (pH 7.3), 300–305 mosm/liter. Recordings were obtained with an Axon Instruments 200B patch clamp amplifier that was controlled and monitored with an IBM PC running PCLAMP™ (v. 8) with a DigiData 1320 series interface (Axon Instruments, Foster City, Calif.). Electrode resistances were typically 2–4 MΩ in the bath. After seal rupture, series resistance (4–10 MΩ) was compensated (70–90%) and periodically monitored. Drugs were applied with a gravity-fed “sewer pipe” system. The array of application capillaries was positioned 250 μm from the cell under study. Solution changes were effected by altering the position of the array with a DC drive system controlled by a microprocessor-based controller (Newport-Klinger, Irvine, Calif.). Data analyses were performed with AXOGRAPH™ (Axon Instruments), […]™ (Albeck Software, Reading, Pa.), and […]™ (Abacus Concepts, Berkeley, Calif.).

CKI = assay: in vitro inhibitory potency of CKI-7 towards CKI; type: biochemical
Protocol: CKI may also regulate Cdk5 kinase activity in response to mGluR receptor activation, or vice versa. To examine these possibilities, experiments were performed with a CKI inhibitor, CKI-7. The crystal structure of the catalytic domain of casein kinase I complexed with CKI-7 provided evidence that CKI-7 achieves its selectivity for CKI by hydrophobic contacts and hydrogen bonding with the isoquinoline ring (Xu, R. M. et al. 1996. Proc. Natl. Acad. Sci. USA 93:6308–6313). In in vitro studies, the inhibitory potency (IC50 values) for CKI-7 towards CKI and Cdk5/p25 was determined.

effect of pretreatment on the effect of DHPG on Cdk5 kinase activity (Cdk5; CKI-7 dose-dependent, U73122 10 μM, BAPTA/AM 20 μM, cyclosporin A 5 μM) | IC50 (CKI) [µM] | Compound | effect on basal or DHPG-stimulated DARPP-32 phosphorylation at Ser137 ([1]; 50 μM CKI-7, 30 min before DHPG 2 min) | effect on basal and DHPG-stimulated DARPP-32 phosphorylation at Ser137 ([1]; CKI-7 100 to 300 μM, 30 min before DHPG 2 min) | effect on basal Ca2+ currents [2] | effect on the enhancement of Ca2+ currents by DHPG ([2]; DHPG 100 μM) | effect on the enhancement of Ca2+ currents by DHPG ([2]; DHPG 100 μM, listed as CK1–7) | effect on basal Ca2+ currents ([2]; listed as CK1–7) | increase in phosphorylation of Ser137 ([1]; DHPG 100 μM, group I mGluR activation) | time of peak level of phosphorylation of Ser137 ([1]; DHPG 100 μM, back to basal level by 5 minutes) [min] | effect on phosphorylation of Ser137 in DARPP-32 ([1]; slices treated with drug alone: DHPG 100 μM, ionomycin 2 μM) | effect on Cdk5 kinase activity (Cdk5; DHPG treatment of slices) | increase in Cdk5 activity (Cdk5; DHPG, after 2 minutes, back to basal level after 5 minutes) | time to enhancement of Ca2+ currents ([2]; DHPG) [s] | effect on Ca2+ currents ([2]; DHPG 100 μM, wild-type neurons) | effect of DHPG on Ca2+ channels in neurons from DARPP-32 knock-out mice ([2]; DHPG 100 μM, nine out of ten neurons)
attenuated | 15 | NCCNS(=O)(=O)c1ccc(Cl)c2ccncc12 [CKI-7] | little effect | dose-dependent decreases | significant reduction | eliminated | attenuated | reduced | – | – | – | – | – | – | – | –
– | – | N[C@H](C(=O)O)c1cc(O)cc(O)c1 [DHPG, (S)-3,5-Dihydroxyphenylglycine] | – | – | – | – | – | – | 2–3 fold | 2 | rapid but transient increase | rapid but transient increase; also recorded: increased | approximately 4 fold | ≤ 90 | enhanced; also recorded: increased | completely eliminated; also recorded: no effect
